The subject of this assay is production of CD69 by B lymphocytes in human whole blood activated with goat F(ab')2 anti-human IgM. Description: CD69 Whole Blood Assay (CD69 Hu Blood FACS). The format is cell-based. Particulars: anti-IgM stimulated, 20 hour incubation, CD69+ of CD20+ cells. The text has this:
A CD69 Whole Blood Assay can be conducted on Formula I compounds to determine the ability of compounds to inhibit the production of CD69 by B lymphocytes in human whole blood activated by crosslinking surface IgM with goat F(ab′)2 anti-human IgM (Example 907). CD69 is a type II C-type lectin involved in lymphocyte migration and cytokine secretion. CD69 expression represents one of the earliest available indicators of leukocyte activation and its rapid induction occurs through transcriptional activation (Vazquez et al (2009) Jour. of Immunology Published Oct. 19, 2009, doi:10.4049/jimmunol.0900839). Concentration-dependent inhibition of antigen receptor stimulation by selective Btk inhibitors induces cell surface expression of the lymphocyte activation marker CD69 (Honigberg et al (2010) Proc. Natl. Acad. Sci. 107(29):13075-13080). Thus, CD69 inhibition by selective Btk inhibitors may be correlated with therapeutic efficacy of certain B-cell disorders.
Human blood is obtained from healthy volunteers, with the following restrictions: 1 week drug-free, non-smokers. Blood (approximately 20 mls to test 8 compounds) is collected by venipuncture into Vacutainer® (Becton, Dickinson and Co.) tubes with sodium heparin.
Solutions of Formula I compounds at 10 mM in DMSO are diluted 1:10 in 100% DMSO, then are diluted by three-fold serial dilutions in 100% DMSO for a ten point dose-response curve. The compounds are further diluted 1:10 in PBS and then an aliquot of 5.5 μl of each compound is added in duplicate to a 2 ml 96-well plate; 5.5 μl of 10% DMSO in PBS is added as control and no-stimulus wells. Human whole blood—HWB (100 μl) is added to each well. After mixing the plates are incubated at 37° C., 5% CO2, 100% humidity for 30 minutes. Goat F(ab′)2 anti-human IgM (10 μl of a 500 μg/ml solution, 50 μg/ml final) is added to each well (except the no-stimulus wells) with mixing and the plates are incubated for an additional 20 hours. At the end of the 20 hour incubation, samples are incubated with fluorescent labeled antibodies for 30 minutes, at 37° C., 5% CO2, 100% humidity. Include induced control, unstained and single stains for compensation adjustments and initial voltage settings. Samples are then lysed with PharM Lyse™ (BD Biosciences Pharmingen) according to the manufacturer's instructions. Samples are then transferred to a 96 well plate suitable to be run on the BD Biosciences HTS 96 well system on the LSRII machine. Data acquired and Mean Fluorescence Intensity values were obtained using BD Biosciences DIVA Software. Results are initially analyzed by FACS analysis software (Flow Jo).

Turning to `O=C1c2cc3c(n2CCN1c1cc(F)cc(-c2cc(Nc4ccc(N5CCN(C6COC6)CC5)cn4)c4nc[nH]c4c2)c1CO)CCCC3` [Compound 116, 2-[5-fluoro-2-(hydroxymethyl)-3-[7-[[5-[4-(oxetan-3-yl)piperazin-1-yl]-2-pyridyl]amino]-3H-benzimidazol-5-yl]phenyl]-3,4,6,7,8,9-hexahydropyrazino[1,2-a]indol-1-one], the CD69 Hu Blood FACS IC70 (Table 2) was 1300 nM.
As to `CN1CCN(c2ccc(Nc3cc(-c4cc(F)cc(N5CCn6c(cc7c6CCCC7)C5=O)c4CO)nn4ccnc34)nc2)CC1` [Compound 104, 2-(5-Fluoro-2-(hydroxymethyl)-3-(8-(5-(4-methylpiperazin-1-yl)pyridin-2-ylamino)imidazo[1,2-b]pyridazin-6-yl)phenyl)-3,4,6,7,8,9-hexahydropyrazino[1,2-a]indol-1(2H)-one], the CD69 Hu Blood FACS IC70 (Table 1) came to 96 nM.
`CC1(C)Cc2cc3n(c2C1)CCN(c1cc(F)cc(-c2nc(Nc4ccc(N5CCN(C6COC6)CC5)cc4)c4nc[nH]c4n2)c1CO)C3=O` [Compound 123, 3-[5-fluoro-2-(hydroxymethyl)-3-[6-[4-[4-(oxetan-3-yl)piperazin-1-yl]anilino]-9H-purin-2-yl]phenyl]-7,7-dimethyl-1,2,6,8-tetrahydrocyclopenta[3,4]pyrrolo[3,5-b]pyrazin-4-one]: the CD69 Hu Blood FACS IC70 (Table 2) was 256 nM.
Under “Table 1”, `O=C1c2cc3c(n2CCN1c1cc(F)cc(-c2cn4ccnc4c(Nc4ccc(N5CCN(C6COC6)CC5)cn4)n2)c1CO)CCCC3` [Compound 107, 2-(5-Fluoro-2-(hydroxymethyl)-3-(8-(5-(4-(oxetan-3-yl)piperazin-1-yl)pyridin-2-ylamino)imidazo[1,2-a]pyrazin-6-yl)phenyl)-3,4,6,7,8,9-hexahydro-pyrazino[1,2-a]indol-1(2H)-one] showed a CD69 Hu Blood FACS IC70 of 939 nM.
For `Cn1cnc2c(Nc3ccc(N4CCN(C5COC5)CC4)cn3)cc(-c3cc(F)cc(N4CCn5c(cc6c5CCCC6)C4=O)c3CO)cc21` [Compound 109, 2-(5-Fluoro-2-(hydroxymethyl)-3-(3-methyl-7-(5-(4-(oxetan-3-yl)piperazin-1-yl)pyridin-2-ylamino)-3H-benzo[d]imidazol-5-yl)phenyl)-3,4,6,7,8,9-hexahydropyrazino[1,2-a]indol-1(2H)-one], the CD69 Hu Blood FACS IC70 (Table 1) is 1300 nM.
